In the supplement of paper PMC4862054:

Test system: MDA-MB-468
Experiment: drug sensitivity score (DSS), CellTiter-Blue viability (DSS (AUC-based score)); higher = stronger viability inhibition; extreme values may be limits of the assay
Details: incubation time: 72 h
Experimental: (§1)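 DSRT with the CellTiter-Blue (resazurin reduction) viability readout, fluorescence 560/590 nm, 72 h incubation. Plates were normalised to DMSO and benzethonium chloride controls. DSS is computed from the area under the fitted dose-response curve (5 or 9 concentrations).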

| Compound | drug sensitivity score |
| --- | --- |
| COc1cc2/c(=N/c3ccc(Br)cc3F)nc[nH]c2cc1OCC1CCN(C)CC1 [Vandetanib] | 6.11 |
| COCC[n+]1c2c(n(Cc3cnccn3)c1C)C(=O)c1ccccc1C2=O [YM155] | 40.3 |

Test system: MFM-223
Experiment: as above
Details: incubation time: 72 h
Experimental: as §1

| Compound | drug sensitivity score |
| --- | --- |
| CC(C)C[C@@H](C(=O)N[C@H](C(=O)OC1CCCC1)c1ccccc1)[C@H](O)C(=O)NO [Tosedostat] | 8.63 |
| COc1cc2/c(=N/c3ccc(Br)cc3F)nc[nH]c2cc1OCC1CCN(C)CC1 [Vandetanib] | 8.55 |
| COCC[n+]1c2c(n(Cc3cnccn3)c1C)C(=O)c1ccccc1C2=O [YM155] | 29.7 |

Test system: SK-BR-3
Experiment: as above
Details: incubation time: 72 h
Experimental: as §1

| Compound | drug sensitivity score |
| --- | --- |
| CC(C)C[C@@H](C(=O)N[C@H](C(=O)OC1CCCC1)c1ccccc1)[C@H](O)C(=O)NO [Tosedostat] | 0 |
| COc1cc2/c(=N/c3ccc(Br)cc3F)nc[nH]c2cc1OCC1CCN(C)CC1 [Vandetanib] | 4.07 |
| COCC[n+]1c2c(n(Cc3cnccn3)c1C)C(=O)c1ccccc1C2=O [YM155] | 37 |

Test system: BT-549
Experiment: drug sensitivity score (DSS), CellTiter-Glo (DSS (AUC-based score)); higher = stronger drug effect (viability inhibition or cytotoxicity); extreme values may be limits of the assay
Details: incubation time: 72 h
In short: (§2)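 The drug sensitivity score was computed from the area under the fitted dose-response curve. Breast cancer cell lines in 20 µl suspension went into 384-well plates holding compound at 5 concentrations (10-fold steps over a 10,000-fold, compound-specific range) for 72 h of incubation. CellTox Green fluorescence (485/520 nm) was read before CellTiter-Glo luminescence, the latter after 10 min at room temperature, and each plate was normalised to 0.1 % DMSO and a positive kill control.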

| Compound | drug sensitivity score |
| --- | --- |
| CC(C)C[C@@H](C(=O)N[C@H](C(=O)OC1CCCC1)c1ccccc1)[C@H](O)C(=O)NO [Tosedostat] | 12.3 |
| COc1cc2/c(=N/c3ccc(Br)cc3F)nc[nH]c2cc1OCC1CCN(C)CC1 [Vandetanib] | 0 |
| COCC[n+]1c2c(n(Cc3cnccn3)c1C)C(=O)c1ccccc1C2=O [YM155] | 25.8 |

Test system: CAL-120
Experiment: as above
Details: incubation time: 72 h
In short: as §2

| Compound | drug sensitivity score |
| --- | --- |
| CC(C)C[C@@H](C(=O)N[C@H](C(=O)OC1CCCC1)c1ccccc1)[C@H](O)C(=O)NO [Tosedostat] | 12.7 |
| COc1cc2/c(=N/c3ccc(Br)cc3F)nc[nH]c2cc1OCC1CCN(C)CC1 [Vandetanib] | 0.197 |
| COCC[n+]1c2c(n(Cc3cnccn3)c1C)C(=O)c1ccccc1C2=O [YM155] | 42.3 |

Test system: CAL-148
Experiment: as above
Details: incubation time: 72 h
In short: as §2

| Compound | drug sensitivity score |
| --- | --- |
| CC(C)C[C@@H](C(=O)N[C@H](C(=O)OC1CCCC1)c1ccccc1)[C@H](O)C(=O)NO [Tosedostat] | 5.14 |
| COc1cc2/c(=N/c3ccc(Br)cc3F)nc[nH]c2cc1OCC1CCN(C)CC1 [Vandetanib] | 0 |
| COCC[n+]1c2c(n(Cc3cnccn3)c1C)C(=O)c1ccccc1C2=O [YM155] | 33 |

Test system: CAL-51
Experiment: as above
Details: incubation time: 72 h
In short: as §2

| Compound | drug sensitivity score |
| --- | --- |
| CC(C)C[C@@H](C(=O)N[C@H](C(=O)OC1CCCC1)c1ccccc1)[C@H](O)C(=O)NO [Tosedostat] | 4.55 |
| COc1cc2/c(=N/c3ccc(Br)cc3F)nc[nH]c2cc1OCC1CCN(C)CC1 [Vandetanib] | 0.137 |
| COCC[n+]1c2c(n(Cc3cnccn3)c1C)C(=O)c1ccccc1C2=O [YM155] | 33.8 |

Test system: DU-4475
Experiment: as above
Details: incubation time: 72 h
In short: as §2

| Compound | drug sensitivity score |
| --- | --- |
| CC(C)C[C@@H](C(=O)N[C@H](C(=O)OC1CCCC1)c1ccccc1)[C@H](O)C(=O)NO [Tosedostat] | 0 |
| COc1cc2/c(=N/c3ccc(Br)cc3F)nc[nH]c2cc1OCC1CCN(C)CC1 [Vandetanib] | 0 |
| COCC[n+]1c2c(n(Cc3cnccn3)c1C)C(=O)c1ccccc1C2=O [YM155] | 27.1 |

Test system: HCC1143
Experiment: as above
Details: incubation time: 72 h
In short: as §2

| Compound | drug sensitivity score |
| --- | --- |
| CC(C)C[C@@H](C(=O)N[C@H](C(=O)OC1CCCC1)c1ccccc1)[C@H](O)C(=O)NO [Tosedostat] | 5.96 |
| COc1cc2/c(=N/c3ccc(Br)cc3F)nc[nH]c2cc1OCC1CCN(C)CC1 [Vandetanib] | 0 |
| COCC[n+]1c2c(n(Cc3cnccn3)c1C)C(=O)c1ccccc1C2=O [YM155] | 35.2 |

Test system: HCC1937
Experiment: as above
Details: incubation time: 72 h
In short: as §2

| Compound | drug sensitivity score |
| --- | --- |
| CC(C)C[C@@H](C(=O)N[C@H](C(=O)OC1CCCC1)c1ccccc1)[C@H](O)C(=O)NO [Tosedostat] | 8.46 |
| COc1cc2/c(=N/c3ccc(Br)cc3F)nc[nH]c2cc1OCC1CCN(C)CC1 [Vandetanib] | 0 |
| COCC[n+]1c2c(n(Cc3cnccn3)c1C)C(=O)c1ccccc1C2=O [YM155] | 35.3 |

Test system: HDQ-P1
Experiment: as above
Details: incubation time: 72 h
In short: as §2

| Compound | drug sensitivity score |
| --- | --- |
| CC(C)C[C@@H](C(=O)N[C@H](C(=O)OC1CCCC1)c1ccccc1)[C@H](O)C(=O)NO [Tosedostat] | 5.25 |
| COc1cc2/c(=N/c3ccc(Br)cc3F)nc[nH]c2cc1OCC1CCN(C)CC1 [Vandetanib] | 0 |
| COCC[n+]1c2c(n(Cc3cnccn3)c1C)C(=O)c1ccccc1C2=O [YM155] | 33.5 |

Test system: MDA-MB-453
Experiment: as above
Details: incubation time: 72 h
In short: as §2

| Compound | drug sensitivity score |
| --- | --- |
| CC(C)C[C@@H](C(=O)N[C@H](C(=O)OC1CCCC1)c1ccccc1)[C@H](O)C(=O)NO [Tosedostat] | 14.1 |
| COc1cc2/c(=N/c3ccc(Br)cc3F)nc[nH]c2cc1OCC1CCN(C)CC1 [Vandetanib] | 0 |
| COCC[n+]1c2c(n(Cc3cnccn3)c1C)C(=O)c1ccccc1C2=O [YM155] | 29.6 |

Test system: SK-BR-3
Experiment: as above
Details: incubation time: 72 h
In short: as §2

| Compound | drug sensitivity score |
| --- | --- |
| CC(C)C[C@@H](C(=O)N[C@H](C(=O)OC1CCCC1)c1ccccc1)[C@H](O)C(=O)NO [Tosedostat] | 0 |
| COc1cc2/c(=N/c3ccc(Br)cc3F)nc[nH]c2cc1OCC1CCN(C)CC1 [Vandetanib] | 0 |
| COCC[n+]1c2c(n(Cc3cnccn3)c1C)C(=O)c1ccccc1C2=O [YM155] | 33 |
